Like-named read-outs stand apart in the source and are kept apart here.
Legend:
SW480 = experiment: Cytotoxic assay (IC50) in SW480; assay type: cell-based; conditions: Homo sapiens, SW480 cell line
Description: (§1) DS-B: cells were exposed to a chemical stress comprising a chemical stimulation with chemotherapeutic agents commonly used for the colorectal cancer: 5-FU (Sigma, F6627), oxaliplatin (Sigma, Y0000271) or SN-38 (7-ethyl-10-hydroxy-camptothecin) (Sigma, H0165). In particular, the association of a chemotherapeutic agent with each cell line was based on literature assumptions (Table 3), and further on the degree of resistance of the cell line to each chemotherapeutic agent. For each cell line, this resistance level to each chemotherapeutic agent was assessed by determining the half maximal inhibitory concentration (IC50) in a cytotoxic assay.

HT-29 = experiment: Cytotoxic assay (IC50) in HT-29; assay type: cell-based, human
Description: as §1

CD243 (MDR-1) = experiment: FACS marker expression: CD243; assay type: cell-based, human; conditions: LoVo cells treated with 5-FU
Experimental: (§2) A comparison of marker expression was carried out to validate each DS-A and DS-B.
(§3) Finally, the vaccine composition (DP or “STC-1010”) could be formulated by pooling all six DS (3 DS-A—one for each cell line; and 3 DS-B—one for each cell line) in 100 μL doses (each comprising 3 million cells).

LoVo = experiment: Cytotoxic assay (IC50) in LoVo; assay type: cell-based, human
Description: as §1

HCT-116 = experiment: Cytotoxic assay (IC50) in HCT-116; assay type: cell-based, human
Description: as §1

CD66 (CEA) = experiment: FACS marker expression: CD66; assay type: cell-based, human
Experimental: as §2

[1] = test system: colorectal human cell lines; conditions: according to the literature; cited from earlier work
CD54 (ICAM-1) = experiment: FACS marker expression: CD54; assay type: cell-based, human; conditions: HT-29 cells treated with oxaliplatin
Experimental: as §2

CD107 (LAMP-1) = experiment: FACS marker expression: CD107; assay type: cell-based, human; conditions: HT-29 cells treated with oxaliplatin
Experimental: as §2, §3

CD95 (FAS receptor) = experiment: FACS marker expression: CD95; assay type: cell-based, human; conditions: HT-29 cells treated with oxaliplatin
Experimental: as §2

[2] = HT-29 cell line, cytotoxic assay, read-out: IC50
[3] = LoVo cell line, cytotoxic assay, read-out: IC50
[4] = HCT-116 cell line, cytotoxic assay, read-out: IC50

For `O=c1[nH]cc(F)c(=O)[nH]1` [5-FU, fluorouracil], the IC50 (SW480) was 23100 nM, the IC50 (HT-29; Homo sapiens, HT-29) was 3600 nM and the “CD243 expression as compared to unstressed cells” value (CD243 (MDR-1)) was “overexpression”. For the same molecule, the IC50 (LoVo; Homo sapiens, LoVo) was 2400 nM, the IC50 (HCT-116; Homo sapiens, HCT-116) was 17000 nM and the “CD66 expression as compared to unstressed cells” value (CD66 (CEA); LoVo cells treated with 5-FU) was “overexpression”. For the same molecule, the Resistance cell lines [1] was “HCT-116, HT-29, SW48, SW480”.

Work on `CCc1c2c(nc3ccc(O)cc13)-c1cc3c(c(=O)n1C2)COC(=O)[C@]3(O)CC` [SN-38, 7-ethyl-10-hydroxy-camptothecin] yielded an IC50 (HT-29; [2]) of 130 nM, an IC50 (LoVo; [3]) of 22 nM and an IC50 (HCT-116; [4]) of 50 nM. For the same molecule, the “CD66 expression as compared to unstressed cells” value (CD66 (CEA); HCT-116 cells treated with SN-38) was “overexpression” and the Resistance cell lines [1] was “HCT-116, HT-29, SW48”.

For `O=C1[O][Pt]2([NH][C@@H]3CCCC[C@H]3[NH]2)[O]C1=O` [Oxaliplatin, oxaliplatin], the “CD54 expression as compared to unstressed cells” value (CD54 (ICAM-1)) was “overexpression”, the IC50 (HT-29; [2]) was 460 nM and the IC50 (LoVo; [3]) was 1100 nM. For the same molecule, the IC50 (HCT-116; [4]) was 600 nM, the “CD107 expression as compared to unstressed cells” value (CD107 (LAMP-1)) was “overexpression” and the “CD95 expression as compared to unstressed cells” value (CD95 (FAS receptor)) was “overexpression”. The Resistance cell lines [1] was “HCT-116, HT-29, LoVo, SW48”.
